Data published in patent US8802711B2, “TRPV1 antagonists” (AbbVie Inc., priority 2011, dated 2014).
Where two headings read alike, the source gives them in different places.

How the values were obtained:
[1] = tested on: Sprague-Dawley rats; experiment: Rat tail immersion assay (noxious thermosensation); format: in vivo; conditions: read-out: % Increase in tail withdrawal latency; for change in vivo at 100 µmol/kg: 1 h, rat, 100 μmol/kg oral, one hour post dosing, 55° C. water bath, relative to vehicle
Description: Adult male Sprague-Dawley rats (250-300 g body weight, Charles River Laboratories, Portage, Mich.) were used. Animal handling and experimental protocols were approved by the Institutional Animal Care and Use Committee (IACUC) at Abbott Laboratories. For all surgical procedures, animals were maintained under isoflurane anesthesia (4-5% to induce, 1-3% to maintain), and the incision sites were sterilized using a 10% povidone-iodine solution prior to and after surgeries.
Compounds were tested for their effects on noxious thermosensation using the tail immersion assay. Testing was performed one hour following oral administration of 100 μmol/kg of the compound in 10% ethanol/20% Tween-80/70% PEG-400 (2 mL/kg). Morphine (6 mg/kg) was administered interperitoneally (i.p.) using saline (2 mL/kg) as the vehicle. For testing, a circulating water bath was heated to 55° C. Thirty to sixty minutes post dosing, the rats were handled for a few seconds to calm them down and then cupped with their back against the tester's hand at a slight angle with head facing away from the tester. With rat in one hand and a 0.01 second stopwatch in the other hand, the tail was quickly immersed 6-8 cm in the water bath or to a distance leaving 2-3 cm of tail out of water. The timer was started simultaneously. When the rat flinched or attempted withdrawal, timer was immediately stopped and the rat's tail was quickly removed from water bath. This response latency (in seconds) was recorded. Process was repeated 3 times with 3-4 minutes between readings and the average response latency was calculated.
For a given example, a percent increase in the average response latency (in seconds) for tail withdrawal relative to a vehicle control was determined. % increase=[(tc−tv)/tv]×100%
tc=response latency (in seconds) with oral dosing of compounds
tv=response latency (in seconds) with oral dosing of vehicle
The % increases in tail withdrawal latency relative to vehicle control are divided into the following categories: […]

[2] = target: T1, human TRPV1 receptor (hTRPV1) (Homo sapiens (Human), UniProt Q8NER1); experiment: Acid activation assay (pH 5.0, FLIPR intracellular Ca2+); format: cell-based; conditions: 37.5 μM antagonist, percentage of the maximal pH 5.0-induced response remaining; for remaining activity at 37.5 µM: read-out: hTRPV1 H+ (max % remain)
In short: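 Antagonism of acid-evoked Ca2+ influx measured by FLIPR Calcium-4 fluorescence after a pH 5.0 DPBS/MES stimulus, with compounds preincubated 3 min over 12 half-log concentrations. Cells: stable hTRPV1-expressing 1321N1 line, dye-loaded 90–120 min in the dark at 25 °C.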

[3] = target: T1, human TRPV1 receptor (hTRPV1); experiment: Capsaicin activation assay (FLIPR intracellular Ca2+); format: cell-based; conditions: Table 1; inhibition of capsaicin-induced intracellular Ca2+ increase, HEK293 cells expressing human TRPV1; read-out: hTRPV1 cap IC50
In short: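 Antagonism measured as [Ca2+]i fluorescence on FLIPR Tetra: compounds given 3 min ahead of capsaicin, added as 200 nM (4×), to dye-loaded hTRPV1-HEK293 cells. Response taken as baseline-subtracted peak, normalized to the 50 nM capsaicin control; 12-point one-third-log titrations.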

T1 sequence (Q8NER1 whole entry): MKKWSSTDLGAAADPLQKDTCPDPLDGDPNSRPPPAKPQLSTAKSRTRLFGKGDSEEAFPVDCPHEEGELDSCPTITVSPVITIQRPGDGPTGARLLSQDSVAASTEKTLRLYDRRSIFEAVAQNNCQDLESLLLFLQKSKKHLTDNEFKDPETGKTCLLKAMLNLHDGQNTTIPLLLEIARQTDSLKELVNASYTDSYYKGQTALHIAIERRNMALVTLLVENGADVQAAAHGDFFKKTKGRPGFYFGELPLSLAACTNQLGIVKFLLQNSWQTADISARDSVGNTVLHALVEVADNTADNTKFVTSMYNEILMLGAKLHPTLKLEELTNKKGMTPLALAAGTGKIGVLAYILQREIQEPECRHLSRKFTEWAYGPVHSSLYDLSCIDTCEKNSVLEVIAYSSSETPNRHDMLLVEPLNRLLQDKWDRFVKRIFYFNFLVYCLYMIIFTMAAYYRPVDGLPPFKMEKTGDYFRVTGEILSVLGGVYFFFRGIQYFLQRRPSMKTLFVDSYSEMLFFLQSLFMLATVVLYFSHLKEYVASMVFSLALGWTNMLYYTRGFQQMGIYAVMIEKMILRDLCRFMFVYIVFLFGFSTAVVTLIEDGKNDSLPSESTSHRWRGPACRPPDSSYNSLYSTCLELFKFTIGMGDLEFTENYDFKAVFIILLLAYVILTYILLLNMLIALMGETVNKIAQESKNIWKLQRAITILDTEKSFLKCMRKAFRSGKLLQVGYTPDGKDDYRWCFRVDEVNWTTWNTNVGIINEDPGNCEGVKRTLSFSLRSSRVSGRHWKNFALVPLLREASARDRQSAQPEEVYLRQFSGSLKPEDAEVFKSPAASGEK

Row | Structure (SMILES) | remaining activity at 37.5 µM ([2]; Table 1) [%] | IC50 [3] [nM] | other results
1 | CN1CC[C@]23c4c5ccc(O)c4O[C@H]2[C@@H](O)C=C[C@H]3[C@H]1C5 [Morphine, reference compound] | – | – | change in vivo at 6 mg/kg ([1]; Rattus norvegicus, ip): > 25%
2 | Cc1nc(Nc2cccc3c2C[C@H](O)CC3)oc1-c1ccc(C(F)(F)F)cc1 [K, reference compound] | – | – | change in vivo at 100 µmol/kg [1]: > 25%; remaining activity at 37.5 µM ([2]; Table 2): 3%
3 | CC(C)(C)c1ccc(Nc2ncnc3cc(-c4ncccc4C(F)(F)F)ccc23)cc1 [I, reference compound] | – | – | change in vivo at 100 µmol/kg [1]: > 25%; remaining activity at 37.5 µM ([2]; Table 2): 1%
4 | CC(=O)Nc1nc2c(Oc3cc(-c4ccc(C(F)(F)F)cc4)ncn3)cccc2s1 [H, reference compound] | – | – | change in vivo at 100 µmol/kg [1]: > 25%; hTRPV1 H+ (max % remain) ([2]; Table 2): 10%
5 | CC(C)(C)c1ccc2c(c1)CC[C@H]2NC(=O)Nc1cccc2[nH]ncc12 [J, reference compound] | – | – | change in vivo at 100 µmol/kg [1]: > 25%; remaining activity at 37.5 µM ([2]; Table 2): 1%
6 | Cn1ncc2c(NC(=O)N[C@H]3CC[C@@H](c4ccccc4F)C3)cccc21 [Example 104, 1-[(1S,3R)-3-(2-fluorophenyl)cyclopentyl]-3-(1-methyl-1H-indazol-4-yl)urea] | 42 | 97 | –
7 | O=C(Nc1cccc2c1C[C@H](O)C2)N[C@H]1CC[C@H](c2ccccc2)C1 [Example 8, 1-[(2R)-2-hydroxy-2,3-dihydro-1H-inden-4-yl]-3-[(1S,3S)-3-phenylcyclopentyl]urea] | 78 | 123 | –
8 | Cn1c(=O)ccc2c(NC(=O)N[C@H]3CC[C@@H](c4cccc(F)c4)C3)cccc21 [Example 79, 1-[(1S,3R)-3-(3-fluorophenyl)cyclopentyl]-3-(1-methyl-2-oxo-1,2-dihydroquinolin-5-yl)urea] | 75 | 11 | –
9 | CN1C(=O)CCc2c(NC(=O)N[C@H]3CC[C@@H](c4ccccc4)C3)cccc21 [Example 95, 1-(1-methyl-2-oxo-1,2,3,4-tetrahydroquinolin-5-yl)-3-[(1S,3R)-3-phenylcyclopentyl]urea] | 34 | 58 | –
10 | Cc1cc2c(NC(=O)N[C@@H]3CC[C@@](C)(c4ccccc4)C3)c(F)ccc2cn1 [Example 75, 1-(6-fluoro-3-methylisoquinolin-5-yl)-3-[(1R,3R)-3-methyl-3-phenylcyclopentyl]urea] | 16 | 21 | –
11 | Cc1cccnc1N1CC=C(C(=O)Nc2ccc(S(=O)(=O)C(F)(F)F)cc2)CC1 [L, reference compound] | – | – | change in vivo at 100 µmol/kg [1]: > 25%; remaining activity at 37.5 µM ([2]; Table 2): 2%
12 | Cc1cc2c(NC(=O)N[C@@H]3CC[C@H](c4ccccc4F)C3)c(F)ccc2cn1 [Example 70, 1-(6-fluoro-3-methylisoquinolin-5-yl)-3-[(1R,3S)-3-(2-fluorophenyl)cyclopentyl]urea] | 22 | 5.6 | –
13 | Cn1ncc2c(NC(=O)N[C@H]3CC[C@@H](c4cccc(F)c4)C3)cccc21 [Example 102, 1-[(1S,3R)-3-(3-fluorophenyl)cyclopentyl]-3-(1-methyl-1H-indazol-4-yl)urea] | 34 | 218 | –
14 | CN1C(=O)CCc2c(NC(=O)N[C@H]3CC[C@@H](c4ccccc4F)C3)cccc21 [Example 100, 1-[(1S,3R)-3-(2-fluorophenyl)cyclopentyl]-3-(1-methyl-2-oxo-1,2,3,4-tetrahydroquinolin-5-yl)urea] | 43 | 25 | –
15 | O=C(Nc1cccc2[nH]ncc12)NC1CCCC(c2ccc(C(F)(F)F)cc2)C1 (centres unmarked) [Example 30, 1-(1H-indazol-4-yl)-3-{3-[4-(trifluoromethyl)phenyl]cyclohexyl}urea] | 26 | 1050 | –
16 | O=C(Nc1cccc2c1CCCC2)N[C@@H]1CC[C@H](c2ccccc2)C1 [Example 138, 1-[(1R,3S)-3-phenylcyclopentyl]-3-(5,6,7,8-tetrahydronaphthalen-1-yl)urea] | 0 | 156 | –
17 | O=C(Nc1cccc2[nH]ncc12)N[C@H]1CC[C@@H](C2CCCCC2)C1 [Example 49, 1-((1S,3R)-3-cyclohexylcyclopentyl)-3-(1H-indazol-4-yl)urea] | 68 | 66 | –
18 | CCc1cc2c(NC(=O)N[C@@H]3CC[C@H](c4ccccc4)C3)c(F)ccc2cn1 [Example 140, 1-(3-ethyl-6-fluoroisoquinolin-5-yl)-3-[(1R,3S)-3-phenylcyclopentyl]urea] | 90 | 9600 | –
19 | O=C1CCc2ccc(NC(=O)N[C@@H]3CC[C@H](c4ccccc4)C3)cc2N1 [Example 5, 1-(2-oxo-1,2,3,4-tetrahydroquinolin-7-yl)-3-[(1R,3S)-3-phenylcyclopentyl]urea] | 81 | 70 | –
20 | O=C(Nc1cccc2c1CCC2)N[C@@H]1CC[C@H](c2ccccc2)C1 [Example 111, 1-(2,3-dihydro-1H-inden-4-yl)-3-[(1R,3S)-3-phenylcyclopentyl]urea] | 32 | 362 | –
21 | O=C(Nc1ccc2c(c1)NC(=O)C(N1CCCOCC1)C2)N[C@@H]1CC[C@H](c2ccccc2)C1 (stereo partly drawn) [Example 143, 1-[3-(1,4-oxazepan-4-yl)-2-oxo-1,2,3,4-tetrahydroquinolin-7-yl]-3-[(1R,3S)-3-phenylcyclopentyl]urea] | 24 | 145 | –
22 | CN(C)c1ccc([C@H]2CCC(NC(=O)Nc3cccc4[nH]ncc34)C2)cc1 (stereo partly drawn) [Example 47, 1-{(3S)-3-[4-(dimethylamino)phenyl]cyclopentyl}-3-(1H-indazol-4-yl)urea] | 3 | 290 | –
23 | Cc1cc2c(NC(=O)N[C@H]3CC[C@H](c4ccccc4F)C3)c(F)ccc2cn1 [Example 71, 1-(6-fluoro-3-methylisoquinolin-5-yl)-3-[(1S,3S)-3-(2-fluorophenyl)cyclopentyl]urea] | 15 | 8.6 | –
24 | O=C(Nc1ccc2c(c1)NC(=O)N(CCO)C2)N[C@H]1CC[C@@H](c2cccc(F)c2)C1 [Example 116, 1-[(1S,3R)-3-(3-fluorophenyl)cyclopentyl]-3-[3-(2-hydroxyethyl)-2-oxo-1,2,3,4-tetrahydroquinazolin-7-yl]urea] | 48 | 930 | –
25 | Cc1coc([C@@H]2CC[C@H](NC(=O)Nc3cccc4[nH]ncc34)C2)n1 (single isomer, unassigned) [Example 122, 1-(1H-indazol-4-yl)-3-[(1S*,3R*)-3-(4-methyl-1,3-oxazol-2-yl)cyclopentyl]urea] | 68 | 20500 | –
26 | O=C(Nc1cccc2c1C[C@H](O)C2)N[C@H]1CC[C@@H](c2ccccc2F)C1 [Example 93, 1-[(1S,3R)-3-(2-fluorophenyl)cyclopentyl]-3-[(2R)-2-hydroxy-2,3-dihydro-1H-inden-4-yl]urea] | 55 | 93 | –
27 | Cc1cc2c(NC(=O)N[C@H]3CC[C@H](c4ccccc4)C3)c(F)ccc2cn1 [Example 13, 1-(6-fluoro-3-methylisoquinolin-5-yl)-3-[(1S,3S)-3-phenylcyclopentyl]urea] | 60 | 13 | –
28 | Cn1ncc2c(NC(=O)N[C@@H]3CC[C@@H](c4cccc(F)c4)C3)cccc21 [Example 101, 1-[(1R,3R)-3-(3-fluorophenyl)cyclopentyl]-3-(1-methyl-420-1-21H-indazol-4-yl)urea] | – | 25 | hTRPV1 H+ (max % remain) ([2]; Table 1): 4%
29 | CN1C(=O)CCc2ccc(NC(=O)N[C@H]3CC[C@@H](c4cccc(F)c4)C3)cc21 [Example 108, 1-[(1S,3R)-3-(3-fluorophenyl)cyclopentyl]-3-(1-methyl-2-oxo-1,2,3,4-tetrahydroquinolin-7-yl)urea] | 88 | 804 | –
30 | O=C(Nc1cccc2[nH]ncc12)N[C@@H]1CCC[C@@H](c2ccc(C(F)(F)F)cc2)C1 [Example 31, 1-(1H-indazol-4-yl)-3-{(1R,3R)-3-[4-(trifluoromethyl)phenyl]cyclohexyl}urea] | 35 | 1840 | –
